In brackets after ≈: the same amount, converted by molar mass.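 Cells were grown in 96-well plates and exposed to each compound for 48 hours at five concentrations; endpoints were interpolated linearly between bracketing concentrations, or set to the highest concentration if not reached. GI50 = concentration required for 50% inhibition of growth. TGI denotes the concentration required for complete inhibition of growth.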
What was measured:
Test in all cases: NCI anticancer screen, dose series, 48 h
786-0 renal = system: 786-0 renal
A498 renal = system: A498 renal
ACHN renal = system: ACHN renal
CAKI-1 renal = system: CAKI-1 renal
HOP-62 NSCLC = system: HOP-62 NSCLC
MDA-N = system: MDA-N
NCI/ADR-RES ovarian = system: NCI/ADR-RES ovarian
SF-295 CNS = system: SF-295 CNS
SNB-75 CNS = system: SNB-75 CNS
HT29 colon = system: HT29 colon
LOX IMVI melanoma = system: LOX IMVI melanoma
HS 578T breast = system: HS 578T breast

SMILES	TGI (786-0 renal) [µM]	TGI (A498 renal)	TGI (ACHN renal) [µM]	TGI (CAKI-1 renal)	TGI (HOP-62 NSCLC)	TGI (MDA-N) [µM]	TGI (NCI/ADR-RES ovarian)	TGI (SF-295 CNS)	TGI (SNB-75 CNS)	TGI (HT29 colon)	TGI (LOX IMVI melanoma)	TGI (HS 578T breast) [µM]	GI50 (A498 renal) [µg/mL]	GI50 (CAKI-1 renal) [µg/mL]	GI50 (HOP-62 NSCLC) [µg/mL]	GI50 (HT29 colon) [µg/mL]	GI50 (LOX IMVI melanoma) [µg/mL]	GI50 (NCI/ADR-RES ovarian) [µg/mL]	GI50 (SF-295 CNS) [µg/mL]	GI50 (SNB-75 CNS) [µg/mL]
Cc1cc(C#N)c(Nc2c(C)cccc2[N+](=O)[O-])s1	89.9	> 100 µM	> 100	> 100 µM	75.2 µM	> 100	82.3 µM	> 100 µM	72.2 µM											
COc1cc2c(cc1OC)C(Cc1c3ccccc3cc3ccccc13)N(C)CC2 (stereo not given)		43.6 µM		> 100 µM	48.7 µM		> 74.1 µM	33.8 µM	37.2 µM	31 µM	41.2 µM									
S=C(Nc1ccccc1)N1N=C2c3ccccc3CC[C@H]2[C@@H]1c1ccccc1	> 100	> 100 µM	> 100		> 100 µM					> 100 µM	> 100 µM									
Cn1c(=O)c2nc(N3CCCCC3)cnc2n(C)c1=O		> 100 µM	> 100	> 100 µM	> 100 µM			> 100 µM	> 100 µM	> 100 µM										
COc1cc(OC)nc(Nc2c(C#N)c3nc4ccccc4n3c3ccccc23)n1	43.6		50.1	> 100 µM	35 µM	> 100	> 100 µM	53 µM	37.6 µM	> 100 µM	> 100 µM	> 100								
N#CC(c1cc(Cl)ncn1)c1nc2ccccc2s1 (stereo not given)	29.5	68.6 µM	68.7	82.1 µM	43.8 µM	24.1	15.2 µM	43.7 µM	28.1 µM	23.6 µM	15.8 µM									
CN1OC2OC(=O)OC2[C@H]1[C@H]1O[C@H](c2ccccc2)OC1(C)c1cc(OC(=O)c2ccccc2)ccc1OC(=O)c1ccccc1 (stereo not given in full)	> 50		> 50	> 50 µM	> 50 µM				> 50 µM	> 50 µM	> 50 µM									
CCNCCCCNCC		> 3750 µM		> 3750 µM	> 3750 µM		> 3750 µM	> 3750 µM	> 3750 µM	> 3750 µM	> 3750 µM									
CC[C@]12C=CCN3CCC4(c5cc([C@@]6(C(=O)OC)CC7CN(CCc8c6[nH]c6ccccc86)C[C@@H]6CCC[C@H]76)c(OC)cc5N(C)C4[C@](O)(C(=O)OC)C1OC(C)=O)C32 (stereo not given in full)	> 10	0.816 µM	> 8.37	> 10 µM	1.31 µM		4.75 µM	> 3.23 µM		> 3.12 µM	> 10 µM									
Cc1nn(C)c2c1C(=O)N(C)CC(=O)N2C	> 100	> 100 µM	> 100	> 100 µM	> 100 µM	> 100		> 100 µM	> 100 µM	> 100 µM		> 100								
NC(N)=Nc1nc2ccccc2[nH]1		> 150 µg/mL		> 150 µg/mL	124 µg/mL		> 150 µg/mL	111 µg/mL	> 150 µg/mL	> 150 µg/mL	> 150 µg/mL		45.8 (≈ 262 µM)	48.8 (≈ 279 µM)	43.4 (≈ 248 µM)	51.3 (≈ 293 µM)	43.8 (≈ 250 µM)	6.44 (≈ 36.8 µM)	34.4 (≈ 197 µM)	150 (≈ 856 µM)
CC1=C2C(O)C(C(C)C(=O)NC(C)C)CCC2(C)C=CC1=O (stereo not given)		> 100 µM		> 100 µM	> 100 µM		> 100 µM	> 100 µM	> 100 µM	> 100 µM	> 100 µM									
COc1cccc(-n2c(N)c(-c3nc4cc(C(F)(F)F)ccc4s3)c3ccc([N+](=O)[O-])cc3c2=O)c1	> 100	> 100 µM	> 100	> 100 µM	> 100 µM	> 100	> 100 µM	> 100 µM	> 100 µM	> 100 µM										
CCCCCCCC/C=C/CCCCCCCC1CC(O)C(=O)O1 (stereo not given)	> 100	> 100 µM	> 100		> 100 µM	> 100	> 100 µM	> 100 µM	> 100 µM	> 100 µM	> 100 µM									
Cc1cc(N=Nc2ccc(N=Nc3c(O)c(S(=O)(=O)O)cc4cc(S(=O)(=O)O)ccc34)cc2C)ccc1N=Nc1ccc2cc(S(=O)(=O)O)cc(S(=O)(=O)O)c2c1		> 100 µM			> 100 µM		> 100 µM	> 100 µM	> 100 µM	> 31.6 µM	> 100 µM									
O=C(O)CNS(=O)(=O)c1ccc(NC(=O)Nc2ccccc2)cc1		> 100 µM		> 100 µM	> 100 µM		> 100 µM	> 100 µM	> 100 µM	> 100 µM	> 100 µM									
N#Cc1c2nc3ccccc3nc2n2ccc3ccccc3c12	> 100		> 100					> 100 µM	> 100 µM	> 100 µM										
O=c1[nH]c(=O)n(C2CC(O)C(CO)O2)cc1C#Cc1cc(F)cc(F)c1 (stereo not given)	> 100		> 100	> 100 µM	> 100 µM			> 100 µM	> 100 µM	> 100 µM	> 100 µM									
COc1cc2c(cc1O)C(C)Cc1cc3c(cc1N(C)CC2)OCO3 (stereo not given)	17.4	39.5 µM	74.1	> 74.3 µM	36.8 µM			10.3 µM	9 µM	29.7 µM	18.1 µM									
Cc1cc(-c2ccccc2)cc2[n+]1CC=C2	> 100		> 100	> 100 µM	> 100 µM			> 100 µM	> 100 µM	> 100 µM	> 100 µM									
COC1(C)C=NCC(C)(C)NC(=O)C(C)(OC)C=NCC(C)(C)NC1=O (stereo not given)	> 10		> 10	> 10 µM	> 10 µM	> 10	> 10 µM	> 10 µM	> 10 µM	> 10 µM		> 10								
CC1OC(OC2CC(O)(C(=O)CO)Cc3c(O)c4c(c(O)c32)C(=O)c2ccccc2C4=O)CC(N)C1O (stereo not given)		0.0526 µM	0.134	0.088 µM	0.0782 µM	0.613		0.0818 µM	0.107 µM	0.493 µM	0.029 µM	0.113								
